Here are results for 2 compounds from patent US6194437A (Warner-Lambert Company, priority 1999, dated 2001).

Test [1] addresses T1, cloned human NMB-preferring receptors expressed in CHO cells (Homo sapiens, UniProt P28336).
T1 construct: functional calcium (Fura-2) and Cytosensor acidification assays
The test is described as follows: Measurement of intracellular calcium levels ([Ca2+]i mobilization, Fura-2) in CHO cells. The format is cell-based. The following applies: NMB-preferring receptor (BB1), read-out: [Ca2+]i Mobilization KE. The method, then:
(§1) The compounds of the invention have been tested in in vitro functional assays using cloned human NMB-preferring receptors expressed in CHO cells.
(§2) Protocols for functional assays:
1. Measurement of intracellular calcium levels
Culture of Chinese hamster ovary cells
Chinese hamster ovary cells were routinely grown as monolayers in Ham's F12 nutrient mixture supplemented with 10% FBS and […], and maintained at 37° C. under 5% CO2. Cells were passaged every 3 to 4 days. At each passaging, cells were seeded at a density of 3 to 6 million per 175 cm^2 flask. […]
Plated cells were incubated with 2 μM Fura-2-AM for between 45 and 120 minutes at 25° C. to 29° C. […] Single coverslips were then mounted in a chamber on top of an inverted fluorescence microscope and perfused with a Krebs-Hepes assay buffer (composition in mM: NaCl 118, KCl 4.7, MgSO4 1.2, CaCl^2 1.2, KH^2 PO^4 1.2, Hepes 10, glucose 11, pH 7.2 at 37° C.) {332}.
Measurements of [Ca^2+ ]^i in individual cells were made from the fluorescence ratio (excitations […] for Fura-2) using a specially designed filter wheel assembly, CCD camera or photomuliplier tubes, and specially designed suites of software (MAGICAL OR phocal, Applied Imaging, Sunderland, UK) which samples emission following excitation at different wavelengths at regular intervals. […]
For orientation: Calcium flux is commonly read through the fluorescence of an indicator in the cells.

In test [2] the target is T2, cloned human GRP-preferring receptor (BB2) (Homo sapiens, UniProt P30550).
T2 construct: expressed in transfected cells
The test is described as follows: Receptor binding assay, cloned human GRP-preferring receptor (BB2), [125I][Tyr4]bombesin displacement. The following applies: CHO-K1 cell membranes, 90 minutes incubation. The method, then:
The compounds of the invention have been evaluated in receptor binding assays which measure the affinity of the novel compounds in a cloned human NMB-preferring receptor (BB1) assay and in a cloned human GRP-preferring receptor (BB2) assay. Protocol for Binding Assays […] For binding experiments, cells were harvested by trypsinization, and stored frozen at -70° C. in Ham's F12 culture medium containing 5% DMSO until required. On the day of use, cells were thawed rapidly, diluted with an excess of culture medium, and centrifuged for 5 minutes at 2000 g. Cells were resuspended in 50 mM Tris-HCl assay buffer (pH 7.4 at 21° C., containing 0.02% BSA, 40 μg/ml bacitracin, 2 μg/mL chymostatin, 4 μg/mL leupeptin, and 2 μM phosphoramidon), counted, and polytronned (setting 5, 10 sec) before centrifuging for 10 minutes at 28,000 g. The final pellet was resuspended in assay buffer to a final cell concentration of 1.5×10^5 /mL. […] Radioactivity bound was determined using a gamma counter.

Test [3] deals with T1, cloned human NMB-preferring receptors expressed in CHO cells. The test is described as follows: Measurement of extracellular acidification (CYTOSENSOR) in CHO-NMB cells. The format is cell-based. The following applies: NMB-preferring receptor (BB1), antagonist 30 minutes prior to agonist, 37° C.
From the text: as §1, §2
2. Measurement of extracellular acidification (CYTOSENSOR)
This acidification rate is detected as a change in potential across a silicon light addressable sensor, during periods of media cessation (McConnell, et al., 1992).
CHO-NMB Cells seeded on polycarbonate microporous capsule cups were placed insensor chambers at 37° C. inside the microphysiometer, and maintained by a flow of nonbuffering Ham's F12 nutrient media (growth media without NaHCO3, pH 7.3-7.4) at approximately 120 μL/min. The flow was halted for 22 seconds at the end of each 2 minute repeated cycle, and the rate of acidification (μ volts/sec) measured for 15 seconds during that period.
Agonists were introduced sequentially every 28 to 30 minutes to the perfusing media, 20 seconds before flow-off periods, and removed after two rate measurements via the automatic valve-switch.
The effects of various antagonists were determined after continuous perfusion 30 minutes prior to, and throughout the application of agonists. All agents were applied at the working pH of the media.

The target in test [4] is T3, cloned human NMB-preferring receptor (BB1) (Homo sapiens, UniProt P28336).
T3 construct: expressed in transfected cells
The test is described as follows: Receptor binding assay, cloned human NMB-preferring receptor (BB1), [125I][Tyr4]bombesin displacement. The note with it: CHO-K1 cell membranes, 60 minutes incubation. The method, then:
For binding experiments, cells were harvested by trypsinization, and stored frozen at -70° C. in Ham's F12 culture medium containing 5% DMSO until required. On the day of use, cells were thawed rapidly, diluted with an excess of culture medium, and centrifuged for 5 minutes at 2000 g. Cells were resuspended in 50 mM Tris-HCl assay buffer (pH 7.4 at 21° C., containing 0.02% BSA, 40 μg/ml bacitracin, 2 μg/mL chymostatin, 4 μg/mL leupeptin, and 2 μM phosphoramidon), counted, and polytronned (setting 5, 10 sec) before centrifuging for 10 minutes at 28,000 g. The final pellet was resuspended in assay buffer to a final cell concentration of 1.5×10^5 /mL. […] Radioactivity bound was determined using a gamma counter.

T1 sequence (P28336 whole entry): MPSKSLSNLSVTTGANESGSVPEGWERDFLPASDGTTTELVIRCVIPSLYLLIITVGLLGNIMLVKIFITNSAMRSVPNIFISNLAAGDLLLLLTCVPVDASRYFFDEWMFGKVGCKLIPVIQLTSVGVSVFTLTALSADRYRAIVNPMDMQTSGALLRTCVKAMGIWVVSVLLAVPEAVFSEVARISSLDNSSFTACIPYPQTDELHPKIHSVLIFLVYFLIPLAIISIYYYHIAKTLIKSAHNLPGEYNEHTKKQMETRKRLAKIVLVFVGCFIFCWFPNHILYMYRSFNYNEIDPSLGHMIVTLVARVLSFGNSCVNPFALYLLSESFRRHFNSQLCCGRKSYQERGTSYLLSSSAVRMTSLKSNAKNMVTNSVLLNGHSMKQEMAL
T3 sequence (P28336 whole entry): as above
T2 sequence (P30550 whole entry): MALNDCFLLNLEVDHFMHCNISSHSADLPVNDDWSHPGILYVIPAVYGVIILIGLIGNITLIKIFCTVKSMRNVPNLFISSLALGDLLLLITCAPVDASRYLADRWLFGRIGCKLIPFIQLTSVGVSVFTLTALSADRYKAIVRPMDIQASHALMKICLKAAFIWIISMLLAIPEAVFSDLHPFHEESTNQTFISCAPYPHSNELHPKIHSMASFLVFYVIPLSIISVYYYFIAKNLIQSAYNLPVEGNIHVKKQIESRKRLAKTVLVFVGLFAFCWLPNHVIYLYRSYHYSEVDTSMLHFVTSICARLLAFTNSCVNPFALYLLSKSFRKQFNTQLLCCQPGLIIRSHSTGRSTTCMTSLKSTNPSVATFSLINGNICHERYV

In the case of `CC(C)c1cccc(C(C)C)c1NC(=O)N[C@@](C)(Cc1c[nH]c2ccccc12)C(=O)NCC1(c2ccccn2)CCCCC1` [Example 1, 2-[3-(2,6-Diisopropyl-phenyl)-ureido]-3-(1H-indol-3-yl)-2-methyl-N-(1-pyridin-2-yl-cyclohexylmethyl)-propionamide], the Kb in test [1] worked out at 18 nM. Besides, the Ki in test [2] was greater than 10000 nM; in test [4], 5 nM. Besides, the “Acidification Response appKB” value in test [3] is 7.6.

For the compound `C[C@@](Cc1c[nH]c2ccccc12)(NC(=O)Nc1ccc([N+](=O)[O-])cc1)C(=O)NCC1(c2ccccn2)CCCCC1` [Example 14], the Kb in test [1] was determined as 1.2 nM. The Ki in test [2] came to 19 nM; in test [4] it was 0.15 nM. Further, the “Acidification Response appKB” value in test [3] amounted to 1.0.

By Ki is commonly meant the equilibrium dissociation constant of an inhibitor or competing ligand from its target. A lower Ki goes with tighter binding.
